Source: paper PMC5781198 (Influenza and Other Respiratory Viruses, 2013)

Tests used:
[1] = test system: influenza A(H1N1)pdm09 viruses, neuraminidase (NA); type: biochemical, Influenza A(H1N1)pdm09 virus
[2] = test system: influenza B viruses, neuraminidase (NA); type: biochemical, Influenza B virus
[3] = test system: influenza A(H3N2) viruses, neuraminidase (NA); type: biochemical, Influenza A(H3N2) virus
[4] = test system: influenza B Victoria lineage viruses, neuraminidase (NA); type: biochemical, Influenza B virus (Victoria lineage)
[5] = test system: A/Puerto Rico/34/2011 NA (D151D/G/N); type: biochemical, Influenza A(H3N2) virus

Row | Compound | IC50 of outliers relative to the mean IC50 for the drug [1] | susceptibility in words [1] | susceptibility of A(H1N1)pdm09 viruses compared with A(H3N2) viruses [1] | susceptibility in words [2] | IC50 of outliers relative to the mean IC50 for the drug [3] | susceptibility in words [3] | difference in IC50 between Victoria and Yamagata lineage viruses [4] | sensitivity compared with the other three NAIs [1] | fold difference in IC50 [5] | sensitivity compared with zanamivir and laninamivir [3]
1 | [H]/N=C(\N)N[C@H]1C=C(C(=O)O)O[C@@H]([C@H](OC)[C@H](O)CO)[C@@H]1NC(C)=O [Laninamivir, laninamivir] | approximately twofold more | showed sensitivity to the drug | approximately twofold more sensitive | showed sensitivity to the drug | approximately twofold more | showed sensitivity to the drug | no apparent differences |  |  | 
2 | CCC(CC)[C@H](NC(C)=O)[C@@H]1[C@H](O)[C@@H](C(=O)O)C[C@H]1N=C(N)N [Peramivir, peramivir] |  |  | approximately twofold more sensitive |  |  |  | no apparent differences | fourfold more sensitive | 0·08 (1) fold | threefold more sensitive
3 | CC(=O)N[C@H]1[C@H]([C@H](O)[C@H](O)CO)OC(C(=O)O)=C[C@@H]1N=C(N)N [Zanamivir, zanamivir] |  | all showed sensitivity to the drug | approximately twofold more sensitive | showed sensitivity to the drug |  |  | no apparent differences |  |  | 
